Each structure is given as a SMILES string.

This assay deals with Human cytomegalovirus protease (assemblin). The assay is described as follows: Inhibitory concentration against human cytomegalovirus protease variant expressing a beta galactosidase reporter gene.
`Cc1cccc2nc(NC(C)C)oc(=O)c12` [2-Isopropylamino-5-methyl-benzo[d][1,3]oxazin-4-one]: the IC50 is 4000 nM.

As for `Cc1c(NC(=O)c2ccccn2)ccc2nc(N[C@H](C)c3ccccc3)oc(=O)c12` [Pyridine-2-carboxylic acid [5-methyl-4-oxo-2-(1-phenyl-ethylamino)-4H-benzo[d][1,3]oxazin-6-yl]-amide], the IC50 was found to be 720 nM.

Consider `Cc1c(NC(=O)CN(C)C)ccc2nc(N[C@H](C)c3ccccc3)oc(=O)c12` [2-Dimethylamino-N-[5-methyl-4-oxo-2-(1-phenyl-ethylamino)-4H-benzo[d][1,3]oxazin-6-yl]-acetamide], for which the midpoint of inhibition, the IC50, lay at 2200 nM.

Compound `Cc1c(NC(=O)OC(C)(C)C)ccc2nc(N[C@H](C)c3ccccc3)oc(=O)c12` [[5-Methyl-4-oxo-2-(1-phenyl-ethylamino)-4H-benzo[d][1,3]oxazin-6-yl]-carbamic acid tert-butyl ester] came in with an IC50 of 1300 nM.

Consider `Cc1cccc2nc(N[C@H](C)c3ccc(Br)cc3)oc(=O)c12` [2-[1-(4-Bromo-phenyl)-ethylamino]-5-methyl-benzo[d][1,3]oxazin-4-one], for which the IC50 was 460 nM.

As a reminder, the IC50 is the midpoint of a concentration-inhibition curve.

The record behind these values is BindingDB's records for doi:10.1016/S0960-894X(97)00368-5 (1997).
